Test results reported in the supplement of paper PMC10307832.

Assays:
Experiment in all cases: relative viability (nuclei count vs DMSO), 5 days (fraction); higher = more cells survive
NCI-H1437 = test system: NCI-H1437
Method in brief: (§1)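 Lung cancer cell lines in 1536-well plates got either a single drug or a fixed anchor-drug dose together with five library-drug doses (not always all listed) in √10 steps, by pin tool, on the day after seeding. Nuclei were counted after 5 days, and relative viability is the treated-to-vehicle ratio of nuclei counts. Values are medians of duplicate plates.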

A549 = test system: A549
Method in brief: as §1

Calu-6 = test system: Calu-6
Method in brief: as §1

IA-LM = test system: IA-LM
Method in brief: as §1

NCI-H1703 = test system: NCI-H1703
Method in brief: as §1

NCI-H1355 = test system: NCI-H1355
Method in brief: as §1

LCLC-97TM1 = test system: LCLC-97TM1
Method in brief: as §1

NCI-H596 = test system: NCI-H596
Method in brief: as §1

EBC-1 = test system: EBC-1
Method in brief: as §1

NCI-H1299 = test system: NCI-H1299
Method in brief: as §1

**Q.** What does the source list for `CCNC(=O)c1noc(-c2cc(C(C)C)c(O)cc2O)c1-c1ccc(CN2CCOCC2)cc1` [Luminespib] + CC1(C)CCC(c2ccc(Cl)cc2)=C(CN2CCN(c3ccc(C(=O)NS(=O)(=O)c4ccc(N[C@H](CCN5CCOCC5)CSc5ccccc5)c(S(=O)(=O)C(F)(F)F)c4)cc3)CC2)C1 [Navitoclax] (partner 0.5 µM)?
**A.** relative viability (NCI-H1437; first compound 0.002 µM): 1.06; relative viability (NCI-H1437; first compound 0.006325 µM): 1.07; relative viability (NCI-H1437; first compound 0.02 µM): 1.16; relative viability (NCI-H1437; first compound 0.06325 µM): 0.318; relative viability (NCI-H1437; first compound 0.2 µM): 0.128; relative viability (A549; first compound 0.002 µM): 1.22; relative viability (A549; first compound 0.006325 µM): 1.15; relative viability (A549; first compound 0.02 µM): 1.11; relative viability (A549; first compound 0.06325 µM): 0.0452; relative viability (A549; first compound 0.2 µM): 0.0433; relative viability (Calu-6; first compound 0.002 µM): 0.836; relative viability (Calu-6; first compound 0.006325 µM): 0.772; relative viability (Calu-6; first compound 0.02 µM): 1.08; relative viability (Calu-6; first compound 0.06325 µM): 0.116; relative viability (Calu-6; first compound 0.2 µM): 0.107; relative viability (IA-LM; first compound 0.002 µM): 0.752; relative viability (IA-LM; first compound 0.006325 µM): 0.792; relative viability (IA-LM; first compound 0.02 µM): 0.549; relative viability (IA-LM; first compound 0.06325 µM): 0.061; relative viability (IA-LM; first compound 0.2 µM): 0.058; relative viability (NCI-H1703; first compound 0.002 µM): 1.34; relative viability (NCI-H1703; first compound 0.006325 µM): 0.925; relative viability (NCI-H1703; first compound 0.02 µM): 0.371; relative viability (NCI-H1703; first compound 0.06325 µM): 0.147; relative viability (NCI-H1703; first compound 0.2 µM): 0.138; relative viability (NCI-H1355; first compound 0.002 µM): 0.983; relative viability (NCI-H1355; first compound 0.006325 µM): 0.896; relative viability (NCI-H1355; first compound 0.02 µM): 0.473; relative viability (NCI-H1355; first compound 0.06325 µM): 0.987; relative viability (NCI-H1355; first compound 0.2 µM): 0.968; relative viability (LCLC-97TM1; first compound 0.002 µM): 0.3; relative viability (LCLC-97TM1; first compound 0.006325 µM): 0.538; relative viability (LCLC-97TM1; first compound 0.02 µM): 0.31; relative viability (LCLC-97TM1; first compound 0.06325 µM): 0.411; relative viability (LCLC-97TM1; first compound 0.2 µM): 0.338; relative viability (NCI-H596; first compound 0.002 µM): 0.954; relative viability (NCI-H596; first compound 0.006325 µM): 0.886; relative viability (NCI-H596; first compound 0.06325 µM): 0.936; relative viability (NCI-H596; first compound 0.2 µM): 0.996; relative viability (EBC-1; first compound 0.002 µM): 0.489; relative viability (EBC-1; first compound 0.006325 µM): 0.488; relative viability (EBC-1; first compound 0.02 µM): 0.241; relative viability (EBC-1; first compound 0.06325 µM): 0.142; relative viability (EBC-1; first compound 0.2 µM): 0.133; relative viability (NCI-H1299; first compound 0.002 µM): 1.03; relative viability (NCI-H1299; first compound 0.006325 µM): 1.01; relative viability (NCI-H1299; first compound 0.02 µM): 1.07; relative viability (NCI-H1299; first compound 0.06325 µM): 0.975; relative viability (NCI-H1299; first compound 0.2 µM): 0.295

**Q.** What does the source list for `CN1CCN(CCOc2cc(OC3CCOCC3)c3c(Nc4c(Cl)ccc5c4OCO5)ncnc3c2)CC1` [Saracatinib] + Cc1nc(NC(=O)N2CCC[C@H]2C(N)=O)sc1-c1ccnc(C(C)(C)C(F)(F)F)c1 [Alpelisib] (partner 2 µM)?
**A.** relative viability (NCI-H1437; first compound 0.02 µM): 0.987; relative viability (NCI-H1437; first compound 0.2 µM): 0.894; relative viability (NCI-H1437; first compound 0.6325 µM): 0.845; relative viability (NCI-H1437; first compound 2 µM): 0.895; relative viability (A549; first compound 0.02 µM): 0.799; relative viability (A549; first compound 0.2 µM): 0.718; relative viability (A549; first compound 0.6325 µM): 0.861; relative viability (A549; first compound 2 µM): 0.5; relative viability (Calu-6; first compound 0.02 µM): 1.02; relative viability (Calu-6; first compound 0.2 µM): 0.683; relative viability (Calu-6; first compound 0.6325 µM): 0.721; relative viability (Calu-6; first compound 2 µM): 0.76; relative viability (IA-LM; first compound 0.02 µM): 0.93; relative viability (IA-LM; first compound 0.6325 µM): 1.44; relative viability (IA-LM; first compound 2 µM): 0.958; relative viability (NCI-H1703; first compound 0.02 µM): 0.321; relative viability (NCI-H1703; first compound 0.2 µM): 0.243; relative viability (NCI-H1703; first compound 0.6325 µM): 0.189; relative viability (NCI-H1703; first compound 2 µM): 0.184; relative viability (NCI-H1355; first compound 0.02 µM): 0.848; relative viability (NCI-H1355; first compound 0.2 µM): 0.833; relative viability (NCI-H1355; first compound 0.6325 µM): 0.861; relative viability (NCI-H1355; first compound 2 µM): 0.794; relative viability (LCLC-97TM1; first compound 0.02 µM): 0.198; relative viability (LCLC-97TM1; first compound 0.2 µM): 0.195; relative viability (LCLC-97TM1; first compound 0.6325 µM): 0.357; relative viability (LCLC-97TM1; first compound 2 µM): 0.282; relative viability (NCI-H596; first compound 0.02 µM): 0.459; relative viability (NCI-H596; first compound 0.2 µM): 0.424; relative viability (NCI-H596; first compound 0.6325 µM): 0.448; relative viability (NCI-H596; first compound 2 µM): 0.403; relative viability (EBC-1; first compound 0.02 µM): 0.929; relative viability (EBC-1; first compound 0.2 µM): 0.764; relative viability (EBC-1; first compound 0.6325 µM): 0.898; relative viability (EBC-1; first compound 2 µM): 0.906; relative viability (NCI-H1299; first compound 0.02 µM): 1.08; relative viability (NCI-H1299; first compound 0.2 µM): 1.02; relative viability (NCI-H1299; first compound 0.6325 µM): 1.14; relative viability (NCI-H1299; first compound 2 µM): 1.1
